Experimental data: patent US10335448B2, “Compositions and methods for inhibiting fibrosis” (The UAB Research Foundation, priority 2014, dated 2019)
Entries after “also recorded” stand apart in the source; their conditions may differ. Where a SMILES comes first, the peptide text is derived from it.

Assays:
[1] = system: bleomycin-induced lung fibrosis; conditions: background statement; cited from earlier work
[2] = system: bleomycin-induced lung fibrosis; assay: Bleomycin-induced pulmonary fibrosis in mice, peptide given intratracheally; conditions: for lung fibrosis measured as lung hydroxyproline, second trial: 250 μg IT daily for two weeks starting day 7, n=6 (FIG. 6); for lung fibrosis on histology (H&E), second trial: 250 μg per day IT for 2 weeks starting day 7 (FIG. 5); for pulmonary fibrosis, summary statement: intra-tracheal administration to bleomycin-exposed mice
IMR-90 fibroblasts = assay: Scratch wound migration of IMR-90 fibroblasts and TGF-β1-differentiated myofibroblasts; format: cell-based, human; conditions: 100 μM Ac-PGP, 48 h
Protocol: FIGS. 11A-H show IMR-90 fibroblasts under different conditions. IMR-90 fibroblasts were grown to 80-90% confluence (A, C) and differentiated to myofibroblasts with TGF-β1 (E, G). A scratch was made and 100 μM Ac-PGP was added to some cells (FIGS. 11C, G).
(§1) The simplest explanation for this is a direct effect of Ac-PGP on the myofibroblast, altering its phenotype to stop or perhaps reverse fibrosis. […] Human lung fibroblasts were co-incubated with TGF-β and Ac-PGP and the effects on matrix generation and markers of MF activation and differentiation were observed.

[3] = system: IMR-90 fibroblasts differentiated to myofibroblasts; assay: Western blot of matrix and differentiation markers in IMR-90 myofibroblasts (TGF-β plus Ac-PGP); format: cell-based, human
Protocol: IMR-90 fibroblasts were differentiated to myofibroblasts with TGF-β 2.5 ng/ml. Ac-PGP at differing concentrations (0, 1, 3, 10 and 30 μg/ml) was added at the same time. Whole cell lysates were obtained after 48 h and probed by WB for the indicated proteins.
as §1

rhACE = rhACE (Homo sapiens, UniProt P12821); conditions: not told
Sequence of rhACE (P12821 30-1306): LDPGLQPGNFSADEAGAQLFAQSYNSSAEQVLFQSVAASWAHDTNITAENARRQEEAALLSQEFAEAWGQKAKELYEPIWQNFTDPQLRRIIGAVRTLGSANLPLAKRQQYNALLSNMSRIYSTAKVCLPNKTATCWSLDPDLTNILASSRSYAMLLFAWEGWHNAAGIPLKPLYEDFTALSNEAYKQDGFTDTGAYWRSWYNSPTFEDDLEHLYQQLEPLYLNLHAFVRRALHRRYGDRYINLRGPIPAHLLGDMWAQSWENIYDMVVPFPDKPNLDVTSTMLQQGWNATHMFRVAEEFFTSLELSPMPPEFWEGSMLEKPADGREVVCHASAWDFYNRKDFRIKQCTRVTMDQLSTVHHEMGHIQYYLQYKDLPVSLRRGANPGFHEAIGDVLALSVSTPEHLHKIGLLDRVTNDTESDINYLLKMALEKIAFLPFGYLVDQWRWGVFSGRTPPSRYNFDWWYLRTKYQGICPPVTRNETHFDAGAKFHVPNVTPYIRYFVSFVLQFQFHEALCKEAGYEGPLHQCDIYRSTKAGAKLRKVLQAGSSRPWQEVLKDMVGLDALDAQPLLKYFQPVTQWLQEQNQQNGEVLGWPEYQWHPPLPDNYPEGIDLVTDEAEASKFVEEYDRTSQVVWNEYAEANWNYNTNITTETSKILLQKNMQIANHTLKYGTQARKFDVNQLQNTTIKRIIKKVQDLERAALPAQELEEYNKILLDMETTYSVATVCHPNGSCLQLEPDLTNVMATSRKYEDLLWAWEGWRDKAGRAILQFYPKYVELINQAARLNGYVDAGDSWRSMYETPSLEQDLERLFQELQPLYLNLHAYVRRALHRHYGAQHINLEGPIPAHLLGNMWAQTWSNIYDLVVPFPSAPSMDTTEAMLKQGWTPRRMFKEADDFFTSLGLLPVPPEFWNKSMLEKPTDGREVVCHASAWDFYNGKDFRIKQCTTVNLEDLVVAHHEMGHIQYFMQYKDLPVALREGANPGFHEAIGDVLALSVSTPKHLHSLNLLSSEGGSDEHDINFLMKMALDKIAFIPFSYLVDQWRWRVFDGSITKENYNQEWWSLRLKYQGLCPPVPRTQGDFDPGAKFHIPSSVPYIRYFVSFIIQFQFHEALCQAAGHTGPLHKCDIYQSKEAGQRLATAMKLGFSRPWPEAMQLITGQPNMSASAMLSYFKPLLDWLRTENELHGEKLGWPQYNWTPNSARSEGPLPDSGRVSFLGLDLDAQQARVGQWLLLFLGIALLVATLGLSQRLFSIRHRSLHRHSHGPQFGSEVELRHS

[4] = system: CXC receptors on neutrophils; conditions: Haddox et al. 1999; cited from earlier work
[5] = TGF-β 2.5 ng/ml, Ac-PGP 1-30 μg/ml, 48 h, WB

Compound | fibrosis in the bleomycin model [1] | lung fibrosis measured as lung hydroxyproline, second trial [2] | lung fibrosis on histology (H&E), second trial [2] | pulmonary fibrosis, summary statement [2] | migration of un-differentiated fibroblasts across the wound (IMR-90 fibroblasts) | migration of myofibroblasts across the wound (IMR-90 fibroblasts; TGF-β1-differentiated) | myofibroblast differentiation and pro-fibrotic functions in vitro, summary statement [3] | SRC phosphorylation [3, 5] | collagen expression [3, 5] | fibronectin expression [3, 5] | α-SMA expression [3, 5] | dose giving the greatest inhibition of myofibroblasts ([3]; lesser effects at 30 and 10 μg/ml) [µg/mL] | Ac-PGP breakdown by rhACE (in words) (rhACE) | potency relative to PGP [4] | effectiveness on lung fibrosis measured as lung hydroxyproline ([2]; 125 μg per day IT, days 7 to 21, n=8 (FIG. 4)) | effectiveness at abrogating bleomycin-induced pulmonary fibrosis, second trial ([2]; 250 μg IT daily (FIG. 5)) [%] | lung fibrosis measured as lung hydroxyproline ([2]; 250 μg IT daily for two weeks starting day 7, n=8 (FIG. 4)) | lung fibrosis on lung histology (H&E) ([2]; Ac-PGP 125 μg IT per day, days 7 to 21 after bleomycin (FIG. 3)) | lung fibrosis on lung histology (H&E) ([2]; Ac-PGP 250 μg IT daily for two weeks starting day 7 after bleomycin, vs PBS-treated controls (FIG. 3))
C[C@H](CS)C(=O)N1CCC[C@H]1C(=O)O [Captopril, reference compound] | reduces fibrosis |  |  |  |  |  |  |  |  |  |  |  |  |  |  |  |  |  | 
O=C(NCC(=O)N1CCC[C@H]1C(=O)O)[C@@H]1CCCN1 [PGP, proline-glycine-proline] (H-Pro-Gly-Pro-OH; C-terminus assumed) |  | less effective | partially effective; also recorded: half as effective | partial effect |  |  |  |  |  |  |  |  |  |  |  |  |  |  | 
CC(=O)N1CCC[C@H]1C(=O)NCC(=O)N1CCC[C@H]1C(=O)O [Ac-PGP, N-acetyl-proline-glycine-proline] (Ac-Pro-Gly-Pro-OH; C-terminus assumed) |  | almost completely abrogates | abrogates | abrogated pulmonary fibrosis dose-dependently; also recorded: dramatic inhibition of fibrosis; also recorded: greatly reduces fibrosis | did not affect; also recorded: but not fibroblasts | markedly reduced; also recorded: inhibited migration | inhibited myofibroblast differentiation and pro-fibrotic functions | reduced | reduced | reduced | reduced | 3 | degraded | several times more potent | about 50% | ~100 | almost completely abrogates | intermediate effect; also recorded: about half as effective | almost completely abrogates lung fibrosis; also recorded: almost completely abrogated
